The source of these data is BindingDB's records for patent US11352330 (Hoffmann-La Roche, 2022).

This experiment concerns the target Autotaxin (Homo sapiens, UniProt Q13822). In words: Human ATX Enzyme Inhibition Assay. The method, then: Assay working solutions were made as follows:Assay buffer (50 mM Tris-HCl, 140 mM NaCl, 5 mM KCl, 1 mM CaCl2, 1 mM MgCl2, 0.01% Triton-X-100, pH 8.0;ATX solution: ATX (human His-tagged) stock solution (1.08 mg/mL in 20 mM bicine, pH 8.5, 0.15 M NaCl, 10% glycerol, 0.3% CHAPS, 0.02% NaN3), diluted to 1.4-2.5× final concentration in assay buffer;MR121 substrate solution: MR121 substrate stock solution (800 μM MR121 substrate in DMSO), diluted to 2-5× final concentration in assay buffer.Test compounds (10 mM stock in DMSO, 8 μL) were obtained in 384 well sample plates (Corning Costar #3655) and diluted with 8 μL DMSO. Row-wise serial dilutions were made by transferring 8 μL cpd solution to the next row up to row O. The compound and control solutions were mixed five times and 2 μL were transferred to 384 well assay plates (Corning Costar #3702). Then, 15 μL of 41.7 nM ATX solution was added (30 nM final concentration), mixed five times and then incubated for 15 minutes at 30° C. 10 μL of MR121 substrate solution was added (1 μM final concentration), mixed 30 times and then incubated for 15 minutes at 30° C.

Molecules are shown by their SMILES.

Broadly, the IC50 is the concentration that gives 50% inhibition. Higher therefore signals lower potency.

The molecule `COc1ccccc1-c1cc(Cl)c(C)cc1OCc1n[nH]c(=O)n1C` [US11352330, Example B56] yielded an IC50 of 0.015 µM.
